# Earlier results as cited in patent publication US10045978B2 (AB SCIENCE, priority 2010, dated 2018).
# Where two headings read alike, the source gives them in different places.
# Experiments:
# mastocytosis patients = details: in vivo; cited from earlier work
# [1] = tested on: patients with WHO-defined systemic mastocytosis (SM); details: cited from earlier work
# [2] = tested on: indolent mastocytosis patients; details: cited from earlier work
# [3] = tested on: mast cells carrying the D816V c-Kit mutation; details: in vitro; cited from earlier work
# patients = details: of patients; cited from earlier work
# [4] = entire evaluable study population (N=108)
# [5] = patients with indolent SM (N=22)
molecule,measurement,setting,value
Nc1nc(Cl)nc2c1ncn2[C@H]1C[C@H](O)[C@@H](CO)O1 [Cladribine],cases with reduced mast cell tumor burden,mastocytosis patients,up to 50%
same,major response rate,[1]; [4],37%
same,overall response rate,[1]; [4],55%
same,overall response rate,[1]; [5],56%
NC(=O)NO [hydroxyurea],major response rate,[1]; [4],0%
same,overall response rate,[1]; [4],19%
same,overall response rate,[1]; [5],0%
Cc1ccc(NC(=O)c2ccc(CN3CCN(C)CC3)cc2)cc1Nc1nccc(-c2cccnc2)n1 [imatinib],overall response rate,[1]; c-Kit D816V positive SM patients,17%
same,major response rate,[1]; [4],9%
same,overall response rate,[1]; [4],18%
same,overall response rate,[1]; [5],14%
same,patients reporting symptomatic improvements,[2],6/11
same,response of mast cells carrying the D816V c-Kit mutation,[3],resistant
same,grade 4 neutropaenia,patients,5%
interferon-alpha,major response rate,[1]; [4],18%
same,overall response rate,[1]; [4],53%
same,overall response rate,[1]; [5],60%
